The record followed here is US11034692B1 (Genentech, Inc., priority 2017, dated 2021).

Where two headings read alike, the source gives them in different places.

Experiment [1] has as its system primary human pan T cells. The experiment can be described thus: Human T-Cell IL2 Induction Assay. The settings on record: anti-CD3/anti-CD28 stimulated primary human pan T cells. The class given is cell-based. As to the method:
Human T-Cell IL2 Induction Assay
Anti-CD3 and anti-CD28 activates TCR signaling in primary human pan T cells leading to IL-2 promoter induction. Secreted IL-2 in cell culture supernatant is detected by electrochemiluminescence using a capture antibody against IL-2 and an anti-IL-2 antibody labeled with SULFO-tag.
See www.mesoscale.com for additional electrochemiluminescence technology information.
Incubate primary human pan T cells with varying concentrations of test compounds for 30 minutes in a humidified incubator at 37° C. and 5% CO2. Transfer cells to a plate pre-coated with a fixed concentration of anti-human CD3 (determined separately for each donor lot) and add soluble anti-human CD28 (final concentration=1 μg/ml). Stimulate cells in a humidified incubator at 37° C. and 5% CO2 for 4 hours. Transfer 25 μl of supernatant to a MSD single spot plate pre-coated with an anti-human IL-2 antibody. Incubate MSD plate overnight at 4° C. with gentle shaking. Wash MSD plate 4× with wash buffer. Add SULFO-tagged detection antibody at a 1:50 dilution and incubate at room temperature shaking for 2 hours. Wash MSD plate 4× with wash buffer and add 150 μl 2×MSD read buffer. Read on an MSD instrument. Normalize data to stimulated/untreated controls to calculate % activity at each concentration of compound.
Materials: • Frozen Primary Human Pan-T Cells (StemCell Technologies #70024) • anti-human CD3 (OKT3 clone) (eBioscience #16-0037-81) • anti-human CD28 (CD28.2 clone) (BD #555725) • 96-well Human IL-2 tissue culture kit (MSD #K151AHB-4)
Instrumentation: • Biomek FX for liquid handling (Beckman Coulter) • MSD SECTOR S 600 (Meso Scale Discovery)
Exemplary compounds of Formula I or Ia were tested in the human T-cell IL-2 induction assays. The % increase measured for IL-2 in cells treated by the test compounds relative to untreated cells are provided in Table B2 for certain compounds (structures as shown with the HPK1 Ki values).

Experiment [2] concerns the target HPK1 (Homo sapiens, UniProt Q92918). The experiment in a line: HPK1 Lantha Binding Assay ("Lanth"). Conditions: Table B2, read-out: HPK1 Ki (nM), L = Lanth. The method in brief: (§1)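 TR-FRET tracer displacement with 2 nM GST-tagged kinase, 2 nM Eu-anti-GST antibody and 15 nM Tracer222 at 23 C. Enzyme–antibody preincubated 1 h with compound, then tracer added for 1 h; 340 nm excitation, 615/665 nm emission. Ki from Morrison fit over an 11-point 5-fold dilution.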

Experiment [3] has as its target HPK1. The experiment can be described thus: HPK1 Lantha Binding Assay ("Lanth"). Put shortly: as §1
Experiment [4] addresses HPK1-FL (HPK full length, T165E S171E) (Homo sapiens (Human), UniProt Q92918, S171E/T165E). The experiment can be described thus: HPK1-FL HTRF Enzymatic Assay ("HTRF"). It is filed as biochemical. The settings on record: Table B2, read-out: HPK1 Ki (nM), H = HTRF. As to the method: HPK1-FL HTRF Enzymatic Assay (“HTRF”)
HPK-FL enzyme phosphorylates Biotin-SLP-76 substrate in the presence of ATP at 1 mM and varying concentrations of test compound. Product is detected by FRET using Eu-anti-pSLP76 Ab and SA-XL665. See www.cisbio.com/HTRF for additional HTRF technology information.
Instrumentation: • Echo555 compound dispenser • Agilent Bravo • Perkin Elmer Envision
Materials: • Assay plate: White ProxiPlate 384 F (PerkinElmer cat #6008289) • Kinase: HPK full length double mutant • Substrate: Biotin-SLP76 • ATP: 100 mM ATP • BSG: 2% BSG • DMSO: DMSO (Sigma cat #34869-100ML) • Reaction Buffer: H2O/50 mM HEPES, pH 7.5/10 mM MgCl2/2 mM TCEP/0.01% Brij-35/0.01% BSG • Detection mix: Eu-anti-pSLP76/SA-XL665 (Cisbio, #610SAXAC)
Assay Procedure Ki Determination:
To a 384 well Proxiplate with 80 nL compound or DMSO spotted on was added 4 μl/well kinase mix. The mixture was preincubated for 30 minutes and then 4 μl/well substrate mix was added. The solution was incubated for 60 min and then 4 μl/well detection mix was added. The solution was incubated for another 60 min. The plates were then loaded onto a Perkin Elmer Envision and the TR-FRET signal was measured at 615 and 665 nm. A ratio of […] was used to calculate the % activity at each concentration of compound.
In general terms: In TR-FRET formats the signal depends on donor and acceptor labels being close together.

The mark [5] stands for this setting: Table B1-1, read-out: HPK1 Ki (μM) (Lanth).
Setting [6] is: Table B2, read-out: HPK1 Ki (nM), L = Lanth.

One may read the Ki as the dissociation constant of the complex between target and ligand, obtained from inhibition or displacement.

Sequence of HPK1 (Homo sapiens, UniProt Q92918) (Q92918 whole entry, looked up): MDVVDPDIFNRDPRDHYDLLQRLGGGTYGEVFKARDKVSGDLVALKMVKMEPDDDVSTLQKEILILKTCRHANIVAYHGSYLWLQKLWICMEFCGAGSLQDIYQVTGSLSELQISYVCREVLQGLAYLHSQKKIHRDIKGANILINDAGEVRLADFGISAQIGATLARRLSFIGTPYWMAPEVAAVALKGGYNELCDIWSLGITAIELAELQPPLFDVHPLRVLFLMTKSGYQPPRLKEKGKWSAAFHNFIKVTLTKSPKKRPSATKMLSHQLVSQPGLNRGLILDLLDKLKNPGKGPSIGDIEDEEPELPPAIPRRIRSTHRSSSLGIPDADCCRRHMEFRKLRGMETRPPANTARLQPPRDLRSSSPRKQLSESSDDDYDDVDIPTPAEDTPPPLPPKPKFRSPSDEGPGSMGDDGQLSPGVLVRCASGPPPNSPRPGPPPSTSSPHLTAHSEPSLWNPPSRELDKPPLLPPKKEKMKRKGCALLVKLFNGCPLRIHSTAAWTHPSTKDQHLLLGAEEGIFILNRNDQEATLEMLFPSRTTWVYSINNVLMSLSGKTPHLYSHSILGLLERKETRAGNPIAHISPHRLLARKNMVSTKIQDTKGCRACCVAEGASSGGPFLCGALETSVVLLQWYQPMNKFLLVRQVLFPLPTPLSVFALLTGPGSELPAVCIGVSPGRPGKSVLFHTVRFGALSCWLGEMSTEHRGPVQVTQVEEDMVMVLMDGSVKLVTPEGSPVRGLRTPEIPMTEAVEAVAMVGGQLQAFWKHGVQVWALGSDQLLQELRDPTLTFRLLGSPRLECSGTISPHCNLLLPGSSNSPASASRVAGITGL
Sequence of HPK1-FL (HPK full length, T165E S171E) (Q92918 whole entry T165E/S171E): as the sequence (Q92918 whole entry, looked up) above, with T165E, S171E counted along it

`Cc1n[nH]c(C)c1-c1cc2cc(NC(=O)[C@@H]3C[C@@H]3F)ncc2c(N)n1` (racemic) [Compound 103, (±)-cis-N-(8-amino-6-{3,5-dimethyl-1H-pyrazol-4-yl)-2,7-naphthyridin-3-yl)-2-fluorocyclopropane-1-carboxamide]: in experiment [1] (assayed concentration 0.31 μM), the “% IL-2 increase relative to untreated cells” value came to 94%. The inhibition constant (Ki) on HPK1 [2] was 3.8 nM.
`Cc1ccncc1-c1cc2cc(Nc3cnn([C@H](C)C#N)c3)ncc2c(N)n1` (single isomer, unassigned) [Compound 273]: the “% IL-2 increase relative to untreated cells” value in experiment [1] (assayed concentration 0.93 μM) is given as 830%. Besides, the Ki at HPK1 [2] came to 0.06 nM; on HPK1 [3] (setting [5]), 0.0675 nM.
For the compound `CNC(=O)Nc1cc2cc(-c3cnccc3C)nc(N)c2cn1` [Compound 130, 1-[8-amino-6-(4-methyl-3-pyridyl)-2,7-naphthyridin-3-yl]-3-methyl-urea], in experiment [1] (assayed concentration 0.93 μM), the “% IL-2 increase relative to untreated cells” value amounted to 274%. Besides, the Ki at HPK1 [3] (setting [5]) and on HPK1 [3] (setting [6]) was 2.6 nM throughout.
As to `Cc1ccncc1-c1cc2cc(Nc3cc4n(n3)CC(=O)N(C)CC4)ncc2c(N)n1` [Compound 256, 2-[[8-amino-6-(4-methylpyridin-3-yl)-2,7-naphthyridin-3-yl]amino]-6-methyl-4H,5H,6H,7H,8H-pyrazolo[1,5-d][1,4]diazepin-7-one], the Ki was 0.59 nM in experiment [4] and 0.02 nM at HPK1 [3] (setting [5]). For the same compound, the “% IL-2 increase relative to untreated cells” value in experiment [1] (assayed concentration 0.31 μM) is 699%.
Take `Cc1ccncc1-c1cc2cc(Nc3ccc(CC#N)cn3)ncc2c(N)n1` [Compound 389, 2-[6-[[8-amino-6-(4-methyl-3-pyridyl)-2,7-naphthyridin-3-yl]amino]-3-pyridyl]acetonitrile]: the “% IL-2 increase relative to untreated cells” value in experiment [1] (assayed concentration 0.10 μM) stood at 265%. Further, the inhibition constant (Ki) stood at 0.033 nM on HPK1 [3] (Table B1-2, read-out: HPK1 Ki, L = Lanth) and 0.033 nM on HPK1 [3] (setting [6]).
